Like-named read-outs stand apart in the source and are kept apart here.
How the values were obtained:
A549 xenograft tumor = test: Xenograft tumor growth of A549 cells transfected with siRNA pre-implantation in CD-1 nude mice; format: in vivo, mouse
Protocol: To determine the effect of RRM1 knockdown on tumor growth, A549 cells (human lung cancer cell line; ATCC No. CCL-185) were reverse-transfected prior to implantation in CD-1 nude mice. In 175 cm^2 culture flasks, 10×10^6 A549 cells (in RPMI supplemented with 10% fetal calf serum) were added to pre-made lipoplexes. To make lipoplexes, Lipofectamine RNAiMAX in serum-free RPMI was added to an equal volume of serum-free RPMI containing siRNA (RRM1-2; SEQ ID NO: 4831 (DNA), and SEQ ID NO: 5137 (RNA)) and a control siRNA (SEQ ID NO: 4804 (DNA), and SEQ ID NO: 5301 (RNA)). After addition of cells, the final concentration of siRNA in the flask was 10 nM. Untransfected cells served as a further control. Flasks were incubated at 37° C. for 24 h to allow transfection to proceed.
The cells were harvested by trypsinization 24 h after the transfection, washed twice in PBS and viable cells were counted. Equal numbers of cells (1×10^7) were inoculated into CD-1 nude mice (n=7-9). Briefly, 5 to 7 weeks old nude mice were subcutaneously (s.c.) injected in the right flank with A549 cells in 100 μl PBS. Tumor growth was monitored 3 times per week by measuring tumor sizes using a digital caliper. Tumor volume was expressed in […] using the formula: V=a^2×b×0.52, where a and b represent the minimum and maximum tumor diameter, respectively. Mean tumor volumes calculated from each measurement were then plotted in a standard graph to compare the tumor growth of transfected cells to that of control.
To determine the effect of siRNA-mediated knockdown of HK-II, CAD, IMPDH2, RRM2, SLC16A1 and SLC29A1 on tumor growth, A549 cells (human lung cancer cell line; ATCC No. CCL-185) were reverse-transfected prior to implantation in CD-1 nude mice as described above with siRNAs given in SEQ ID NO: 5307 (DNA), and SEQ ID NO: 5304 (RNA) for RRM2, SEQ ID NO: 4932 (DNA), and SEQ ID NO: 5227 (RNA) for ENT1, SEQ ID NO: 4813 (DNA), and SEQ ID NO: 5119 (RNA) for HK-II, SEQ ID NO: 4827 (DNA), and SEQ ID NO: 5133 (RNA) for CAD, SEQ ID NO: 4879 (DNA), and SEQ ID NO: 5182 (RNA) for IMPDH2 and SEQ ID NO: 4924 (DNA), and SEQ ID NO: 5219 (RNA) for SLC16A1, respectively. The siRNA given in SEQ ID NO: 4804 (DNA), and SEQ ID NO: 5301 (RNA) was used as control.
In two separate experiments, CD-1 mice were divided into five groups that received untransfected A549 cells, cells transfected with control siRNA or three different siRNAs (as listed above), respectively. Cells were transfected in vitro using the method as described in Example 8, and 24 h after transfection, s.c. inoculated into mice. Tumor growth was measured 3 times per week. In the first experiment, mice received cells transfected with siRNA targeting RRM2, HK-II or SLC29A1 and were monitored for 33 days. In the second experiment, mice received cells transfected with siRNA targeting CAD, IMPDH2 or SLC16A1, and were monitored for 26 days. […] Similarly, preliminary data indicated tumor growth rate was reduced for the groups receiving cells transfected with siRNA targeting CAD and SLC16A1. Twenty-six days after cell inoculation, the tumor volume for mice with cells transfected with siRNA targeting CAD or SLC16A1 was 97.2±7.3 mm^3 or 110.1±28.1 mm^3, respectively.

A549 xenografted tumors = test: Intratumoral siRNA treatment of established A549 tumors in CD-1 nude mice; format: in vivo, mouse
Protocol: A549 cells (6−8×10^6 cells) were s.c. inoculated into CD-1 nude mice as described above. When tumors reached an average volume of approximately 100 mm^3, the tumor-bearing mice were randomly assigned into three different treatment groups (RRM1 siRNA, control siRNA and PBS) with 5 to 6 mice in each group. There were no significant differences in tumor volumes among groups prior to the initiation of treatments. Mice were anesthetized by gaseous isoflurane and 50 μl siRNA or PBS was injected directly into tumors using a 30-gauge needle. Two experiments were conducted. In the first experiment (IT#1), the animals received a dose of 50 μg of siRNA in each intratumoral (i.t.) injection and the injections were performed 3 times per week for 2 weeks. In the second experiment (IT#2), 25 μg siRNA was used and mice were injected 3 times per week for 3 weeks. The tumor volume was determined immediately before each injection by perpendicular measurements of the shortest and longest diameters as described above.

A549 cells [1] = test: MTT cell proliferation assay of A549 cells transfected with thymidylate synthase siRNA; format: cell-based, human; settings: 6, 12 and 50 nM siRNA; 72 h
Protocol: siRNA mediated silencing in Human A549 cells A549 cells (ATCC No. CCL-185), a human lung cancer cell line, were cultured in RPMI 1640 medium with 5% v/v dialyzed fetal calf serum. Cells were seeded at a density of 2×10^4 cells/100 μl in 96-well plates. Stealth™ siRNA duplexes targeting the thymidylate synthase (SEQ ID NO: 23) gene were transfected at concentrations of 6, 12, and 50 nM into the A549 cells using Lipofectamine 2000 transfection reagent (Invitrogen). After 72 h, cell viability was assessed by measuring cell proliferation using a standard MTT assay (Mosman, J. Immunol. Methods 65:55-63, 1983).

HCT-116 cells = test: 5FU toxicity in HCT-116 cells after TYMS or DHFR knockdown, SYBR Green; format: cell-based; settings: cells transfected with 0.1 nM siRNA; 5FU continuous for 3 days; read-out: IC50 value of 5FU following TYMS knockdown, HCT-116
Protocol: (§1) HCT-116 and A549 cells were transfected as described above with 0.1, 1.0 and 10 nM of three TYMS-specific siRNAs, labeled TYMS-1, TYMS-2 and TYM-3 (SEQ ID NO: 4833-4835 (DNA), and SEQ ID NO: 5139-5141 (RNA), or 1.0 and 10 nM control siRNAs (809-ctrl; SEQ ID NO: 4805 (DNA), and SEQ ID NO: 5302 (RNA) and 81ctrl; SEQ ID NO: 4804 (DNA), and SEQ ID NO: 5301 (RNA)). HCT-116 and A549 cells were also similarly transfected with 0.1, 1.0 and 10 nM of three DHFR-specific siRNAs, labeled DHFR-1, DHFR-2 and DHFR-3 (SEQ ID NO: 4836-4838 (DNA), and SEQ ID NO: 5142-5144 (RNA)), or control siRNA (SEQ ID NO: 4805 (DNA), and SEQ ID NO: 5302 (RNA)). Twenty four hours after transfection, cells were exposed to 5FU using a serial dilution starting at 44 μM, in medium containing either 10% normal FCS or 10% dialyzed FCS as described above. 5FU treatment was continuous for 3 days, at which time cell growth was analyzed by measuring DNA content per well using the SYBR Green assay outlined above. […] This combinatorial inhibitory effect was further increased when experiments were done in medium containing dialyzed FCS (FIGS. 27D-F; FIGS. 28D-F).
(§2) FIGS. 29 and 30 show transfection with DHFR siRNA similarly led to a dose-dependent increase in growth inhibition above that caused by the drug alone (control siRNA-transfected cells) in HCT-116 cells (FIGS. 29A-C), and A549 cells (FIGS. 30A-C). This combinatorial inhibitory effect was further increased when experiments were done in medium containing dialyzed FCS (FIGS. 29D-F; FIGS. 30D-F). The changes in the IC50 value for 5FU in HCT-116 and A549 cells following TYMS knockdown by individual siRNAs are listed in Table 16 below.

A549 cells [2] = test: Growth inhibition of siRNA-transfected A549 cells, SYBR Green I DNA content; format: cell-based, human; settings: 10 nM siRNA; DNA content 96 hours after transfection
Outline: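 A549 cells reverse-transfected with 10 nM Stealth siRNAs via Lipofectamine RNAiMAX, seeded at 5×10^3 cells/cm^2 in RPMI 1640/10% FCS; non-specific siRNA control. DNA content read 96 h post-transfection by SYBR Green I fluorescence (ex 485/em 535 nm) after freeze-thaw and Triton X-100 lysis; mean of three wells.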

A549 cells [3] = test: 5FU toxicity in A549 cells after TYMS or DHFR knockdown, SYBR Green; format: cell-based, human; settings: 5FU continuous for 3 days, read-out: IC50 value of 5FU following TYMS knockdown, A549
Protocol: as §1, §2

RRM1 mRNA = RRM1 mRNA level by quantitative RT-PCR in A549 cells; format: cell-based, human; settings: 0.01 nM siRNA; 24 h post-transfection
Protocol: RNA was purified from cells using Trizol® extraction as per the manufacturer's protocol (Invitrogen). cDNA was prepared by digesting approximately 200 ng purified RNA with DNAse I (Invitrogen) for 15 minutes at room temperature, followed by 15 minutes at 65° C. in the presence of 25 mM EDTA. 30 ng random primers were added and incubated for 10 minutes at room temperature, 1 minute on ice; Superscript III polymerase (Invitrogen) was added in presence of 5 nM DTT (Sigma, St Louis, Mo.) and 1 mM deoxyribonucleotides (Invitrogen), and the reaction incubated at 25° C. for 5 minutes, followed by an hour at 55° C. cDNA was diluted 1:3 in 10 mM Tris pH 7.0, and quantitative RT-PCR carried out on an ABI Prism 7900HT (Applied Biosciences, Inc., Foster City, Calif.) using FastStart TaqMan SYBRGreen (Roche, Basel, Switzerland) and specific primers at 360 nM for RRM1 and RRM2 and the housekeeping genes HPRT and Lamin. Primer sequence pairs used for RRM1, RRM2, HPRT and lamin are given in SEQ ID NO: 4881 and 4882; 4883 and 4884; 4885 and 4886; 4887 and 4888 respectively.

Substance | average tumor size (A549 xenograft tumor; six weeks after the cell inoculation, 10 nM siRNA pre-implantation) [mm^3] | average tumor size (A549 xenograft tumor; thirty-three days after the cell inoculation, preliminary data) [mm^3] | tumor volume (A549 xenograft tumor; twenty-six days after cell inoculation, preliminary data) [mm^3] | average tumor volume (A549 xenografted tumors; IT#1: 50 μg i.t. 3 times per week for 2 weeks, day 15 after treatment initiation) [mm^3] | tumor volume (A549 xenografted tumors; IT#2: 25 μg i.t. 3 times per week for 3 weeks, day 21 post-treatment initiation) [mm^3] | cell growth (MTT assay) (A549 cells [1]) | IC50 (HCT-116 cells) [nM] | Growth Inhibition in A549 cells (A549 cells [2]) | IC50 (A549 cells [3]; cells transfected with 0.1 nM siRNA) [nM] | IC50 (A549 cells [3]; cells transfected with 1 nM siRNA) [nM] | IC50 (A549 cells [3]; cells transfected with 10 nM siRNA) [nM] | RRM1 mRNA expression (RRM1 mRNA)
SEQ ID NO: 4804: non-specific control siRNA against an irrelevant target (chain 1 AGCAGAGGGAATTCATCTCTCAGGC; chain 2 AGCAGAGGGAAUUCAUCUCUCAGGC; chemistry not given here; one strand in two spellings) [reference compound] | 370.7±63.8 | 172.3±36.1 | 154.3±23.7 | 238.7±41.4 | 248.9±37.3 |  |  |  |  |  |  | 
SEQ ID NO: 4833: siRNA targeting TYMS (chain 1 AGCAGAGGGAATTCATCTCTCAGGC; chain 2 AGCAGAGGGAAUUCAUCUCUCAGGC; chemistry not given here; one strand in two spellings) |  |  |  |  |  | dose-dependent inhibition of cell growth | 100 | + (inhibits by at least 50%) | 340 | 110 | 140 | 
SEQ ID NO: 4830: Stealth siRNA targeting RRM1 (chain 1 AAGATCTGCTTATTCAGTAACTGGG; chain 2 AAGAUCUGCUUAUUCAGUAACUGGG; Commercial Stealth siRNA duplex, modification pattern not given here; one strand in two spellings) |  |  |  |  |  |  |  | ++ (inhibits by at least 75%) |  |  |  | effectively silenced
